# Laboratory results reported in patent publication US20260217652A1, “PHENYL-SUBSTITUTED HETEROARYL COMPOUND AND PHARMACEUTICAL COMPOSITION COMPRISING SAME, PREPARATION METHOD THEREFOR AND USE THEREOF” (SHANGHAI MEIYUE BIOTECH DEVELOPMENT CO., LTD., priority 2023, published 2026).
# Read-outs that look alike come from different tables or passages of the source.
# Legend:
# p38 MAPK/ATF2 = molecular target: T1, p38 MAPK/ATF2 (Homo sapiens, UniProt Q16539); assay: In vitro activity assay of p38 MAPK/ATF2 (HTRF); assay type: biochemical; details: p38α, Human ATF2 Protein, ATP; 35 min at 20° C.
# T1 construct: purchased Carna Biosciences (p38α); Sino Biological (ATF2) 04-152; 11599-H20B
# Protocol: The inhibitory effect of the compound on p38a-catalyzed ATF2 was evaluated by the HTRF method. The test compound was dissolved in DMSO to obtain a 10 mM stock solution and stored at −20° C. for future use. The initial concentration of the compound was 10 μM, with 0.25% DMSO, 5-fold serial dilution, 8 concentrations, and duplicate wells. The reaction buffer, consisting of 40 mM Tris pH 7.5, 20 mM MgCl2, 0.1 mg/mL BSA, and 50 μM DTT, was used to prepare 3.5×p38α (MAPK14, Carna Biosciences, 04-152) protein working solution, 3.5×Human ATF2 Protein (Sino Biological, 11599-H20B) working solution, and 3.5×ATP working solution. The reaction was terminated with 10 mM EDTA. The final 14 μL reaction system was performed in a 96-well plate (cisbio, 66PL96025), containing 0.29 ng/μL p38a, […] Human ATF2 Protein, and 25 µM ATP. After reacting at 20° C. for 35 min, the pre-prepared antibody solution (cibio, 63ADK015PEG, Phospho-ATF2 Eu Cryptate antibody, Phospho-ATF2 d2 antibody, diluted 40-fold with Detection buffer) was added to each well and incubated overnight at room temperature. The samples were then measured using a microplate reader (HTRF compatible reader). The concentration-effect curve was fitted using GraphPad Prism 8 software, and the compound concentration resulting in 50% inhibition, IC50, was calculated.
# [1] = tested on: TNF-α in human PBMC cells; assay: In vitro TNF-α activity assay in human PBMC cell supernatant (LPS, ELISA); assay type: cell-based; details: Homo sapiens, PBMC, 24 h, LPS 100 ng/mL, read-out: p38 MAPK/TNF-α IC50
# Protocol: The inhibitory effect of the compound on TNF-α in the supernatant of human PBMC cells was evaluated using an ELISA detection kit (Beyotime, PI518). The test compound was dissolved in DMSO to obtain a 10 mM stock solution and stored at −20° C. for future use. The initial concentration of the compound was […], followed by 5-fold serial dilution to obtain 6 concentrations. Cells were plated in duplicate, and ELISA was performed in single wells. The final concentration of DMSO was 0.4%. Alternatively, the initial concentration of the compound, dilution factor, number of concentration gradients, and replicates could be adjusted based on the specific screening conditions.
# Fresh human peripheral blood mononuclear cells (PBMCs) (Sailybio) were seeded at a density of 2×10^5 cells per well in a 96-well plate (Corning, 3599), with each well containing 100 μL of RPMI-1640 (Gibco #A1049101)+10% FBS (Gibco, 10099141C), and incubated overnight at 37° C. under 5% CO2. Test compounds were added to the 96-well culture plate at a volume of 25 μL per well. After 1 hour, 5 μL of LPS was added to achieve a final concentration of 100 ng/mL. No LPS and compound were added to the negative control wells, and no compound was added to the positive control wells. The mixture was further incubated for 24 hours at 37° C. under 5% CO2. Subsequently, the cell culture supernatant was collected by centrifugation at 500 rcf for 8 minutes. The concentration of TNF-α was measured according to the operation manual of the ELISA kit. The concentration-effect curve was fitted using GraphPad Prism 8 software, and the compound concentration resulting in 50% inhibition, IC50, was calculated.
# p38 MAPK/MK2 = molecular target: T2, p38 MAPK/MK2 (Homo sapiens, UniProt Q16539); assay: In vitro activity assay of p38 MAPK/MK2 (Z-LYTE kinase assay kit); assay type: biochemical; details: active p38α, inactive MK2, Ser/Thr 4; 1-hour reaction at 20° C.
# T2 construct: purchased Carna (p38α); Abcam (MK2) 04-152; 79910
# Protocol: (§1) The inhibitory effect of the compound on p38 MAPK/MK2 was evaluated using the Z-LYTE kinase assay kit (Thermo, PV3177). The test compound was dissolved in DMSO to obtain a 10 mM stock solution and stored at −20° C. for future use. The initial concentration of the compound was […], with 1% DMSO, 5-fold serial dilution, 8 concentrations, and duplicate wells. […] After a 1-hour reaction at 20° C., Development Reagent A diluted 2048-fold was added to each well, followed by incubation at room temperature for 1 hour. The reaction was terminated by adding 5 μL of stop buffer, and the plate was read using a microplate reader (Ex. 400 nm, Em. 445 nm; Ex. 400 nm, Em. 520 nm). The concentration-effect curve was fitted using GraphPad Prism 8 software, and the compound concentration resulting in 50% inhibition, IC50, was calculated.
# [2] = Pharmacokinetic evaluation in mice; assay type: in vivo; details: mouse, plasma; for AUC(0-t): read-out: Area under curve AUC0-24 h; for clearance: read-out: Clearance CL (converted); for half-life: read-out: Half-life T1/2 (converted); for C0: read-out: Initial concentration C0; for Vd: read-out: Volume of distribution Vd; for bioavailability: read-out: Bioavailability F %; for Cmax: read-out: Maximum concentration Cmax
# Protocol: The compound was weighed and dissolved in a mixed solvent of DMAC: Solutol: PBS (1:1:8. After intravenous/gastric administration to mice, whole blood ([…]) was collected at 0.083, 0.25, 0.5, 1, 2, 4, 7, and 24 hours. The samples were anticoagulated with EDTA-K2, immediately centrifuged at 4000 rpm for 5 minutes at 4° C., and the supernatant was frozen in a −80° C. refrigerator. Plasma sample processing: The samples were precipitated with an internal standard-containing CH3CN precipitant, followed by centrifugation at 12700 rpm for 10 min. The supernatant was collected and analyzed by LC-MS/MS (AB Triple Quard 5500) to obtain the plasma drug concentration. The parameters were calculated using a non-compartmental model in Winnolin version 8.1.
# p38 MAPK/MK5 = molecular target: T3, p38 MAPK/MK5 (Homo sapiens, UniProt Q16539); assay: In vitro activity assay of p38 MAPK/MK5 (Z-LYTE kinase assay kit); assay type: biochemical; details: active p38α, inactive MK5, Ser/Thr 4; 4-hour reaction at 20° C.
# T3 construct: purchased Carna (p38α); Abcam (MK5) 04-152; 217826
# Protocol: as §1, with “MAPK/MK5” for “MAPK/MK2”, “4-hour” for “1-hour”, “µL” for “μL”
# [3] = In vitro liver microsome stability, rat; assay type: in vitro ADME; details: liver microsomes, 0.5 mg/mL microsomes, 1 μM compound, NADPH, 37° C., read-out: Rat liver microsomes Half-life T1/2
# Protocol: (§2) The reference compound used in this experiment was Ketanserin, and the final concentration of microsomes in the experimental system was 0.5 mg/mL. The PBS buffer was a 50 mM K2HPO4 buffer. The concentration of the test compound was 1 μM. The microsomes were added to PBS, and the control/test compounds were respectively added to the corresponding reaction systems, mixed thoroughly, and pre-incubated in a 37° C. water bath for 5 minutes. The reaction was initiated by adding 20 mM NADPH solution under 37° C. water bath conditions (for the No NADPH samples, an equal volume of PBS solution was used as a substitute for the 20 mM NADPH solution). At the reaction time points of 0 min, 10 min, 30 mun, 60 min, and 90 min, 30 μL of reaction samples were taken from each reaction system (for the No NADPH samples, sampling was performed at 0 min and 90 min), and the reaction was immediately terminated by adding 300 μL of the internal standard acetonitrile solution. After centrifugation at 4000 rpm, the supernatant was taken and mixed thoroughly with an equal volume of pure water. The samples at each time point were analyzed by LC-MS/MS (AB Triple Quard 5500) to determine the compound content, and the T1/2 was calculated.
# [4] = In vitro liver microsome stability, mouse; assay type: in vitro ADME; details: liver microsomes, 0.5 mg/mL microsomes, 1 μM compound, NADPH, 37° C., read-out: Mouse liver microsomes Half-life T1/2
# Protocol: as §2
# [5] = In vitro liver microsome stability, human; assay type: in vitro ADME; details: liver microsomes, 0.5 mg/mL microsomes, 1 μM compound, NADPH, 37° C., read-out: Human liver microsomes Half-life T1/2
# Protocol: as §2
# [6] = intravenous injection group 1 mg/kg
# [7] = po, intragastric administration group 5 mg/kg
# T3 sequence (Q16539 whole entry): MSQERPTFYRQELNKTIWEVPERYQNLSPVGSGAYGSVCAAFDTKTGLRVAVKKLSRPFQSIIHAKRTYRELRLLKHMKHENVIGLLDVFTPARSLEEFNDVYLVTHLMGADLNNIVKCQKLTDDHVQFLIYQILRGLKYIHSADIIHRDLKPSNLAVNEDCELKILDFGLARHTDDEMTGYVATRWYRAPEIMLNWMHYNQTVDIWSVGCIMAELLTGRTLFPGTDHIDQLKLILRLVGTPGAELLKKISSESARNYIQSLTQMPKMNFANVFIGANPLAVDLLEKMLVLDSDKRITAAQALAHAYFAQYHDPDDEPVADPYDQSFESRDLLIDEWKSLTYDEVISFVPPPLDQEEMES
# T2 sequence (Q16539 whole entry): as above
# T2 sequence (P49137 whole entry partner): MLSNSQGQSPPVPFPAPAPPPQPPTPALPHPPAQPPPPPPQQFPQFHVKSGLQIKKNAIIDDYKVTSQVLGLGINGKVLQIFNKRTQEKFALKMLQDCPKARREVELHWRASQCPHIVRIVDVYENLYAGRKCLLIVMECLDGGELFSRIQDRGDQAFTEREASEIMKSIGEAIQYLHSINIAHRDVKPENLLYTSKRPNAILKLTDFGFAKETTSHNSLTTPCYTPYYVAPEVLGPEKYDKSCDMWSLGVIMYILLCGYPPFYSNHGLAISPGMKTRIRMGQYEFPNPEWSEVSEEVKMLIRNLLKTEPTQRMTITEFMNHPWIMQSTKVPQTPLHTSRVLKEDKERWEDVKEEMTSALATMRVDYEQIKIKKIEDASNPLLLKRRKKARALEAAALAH
IC50 (p38 MAPK/ATF2),IC50 (p38 MAPK/MK2),"AUC(0-t) [2, 6]","clearance [2, 6]","half-life [2, 6]","C0 [2, 6]","Vd [2, 6]","AUC(0-t) [2, 7]","bioavailability [2, 7]","half-life [2, 7]","Cmax [2, 7]",IC50 (p38 MAPK/MK5),half-life at 1 μM [3],half-life at 1 μM [4],half-life at 1 μM [5],SMILES,IC50 [1]
4600 nM,0.59 nM,,,,,,,,,,> 20000 nM,> 4.66 h,> 4.66 h,> 4.66 h,"Cc1cnc(-c2ccc(F)c([C@@](C)(O)CO)c2F)cc1-n1c(C)cc(OCc2ncc(F)cc2F)c(Cl)c1=O (single isomer, unassigned) [Compound 65-P4]",4.5 nM
> 20000 nM,58.6 nM,,,,,,,,,,6080 nM,> 4.66 h,> 4.66 h,> 4.66 h,Cc1cnc(-c2cccc(C(=O)O)c2)cc1-n1c(C)cc(OCc2ncc(F)cc2F)c(Cl)c1=O [Compound 1],
,1.44 nM,,,,,,,,,,4670 nM,> 4.66 h,> 4.66 h,> 4.66 h,Cc1cnc(-c2cccc([C@@](C)(O)CO)c2F)cc1-n1c(C)cc(OCc2ncc(F)cc2F)c(Cl)c1=O [Compound 35-P1],1.9 nM

# The next lines start with the compound.
SMILES,IC50 (p38 MAPK/ATF2),IC50 (p38 MAPK/MK2),"AUC(0-t) [2, 6]","clearance [2, 6]","half-life [2, 6]","C0 [2, 6]","Vd [2, 6]","AUC(0-t) [2, 7]","bioavailability [2, 7]","half-life [2, 7]","Cmax [2, 7]",IC50 (p38 MAPK/MK5),half-life at 1 μM [3],half-life at 1 μM [4],half-life at 1 μM [5],IC50 [1]
"Cc1cnc(-c2cccc(C(=O)N(C)C)c2)c(F)c1-n1c(C)cc(OCc2ncc(F)cc2F)c(Cl)c1=O (single isomer, unassigned) [Compound 32-P1]",3650 nM,0.51 nM,842 ng·h/mL,21.1 mL/min/kg,0.35 h,1790 ng/mL,0.49 L/kg,2350 ng·h/mL,57.9%,1.54 h,1610 ng/mL,1650 nM,,,,3.21 nM
CNC(=O)c1cccc(-c2cc(-n3c(C)cc(OCc4ncc(F)cc4F)c(Cl)c3=O)c(C)cn2)c1 [Compound 2],10300 nM,62.4 nM,,,,,,,,,,3050 nM,4.17 h,3.96 h,4.14 h,89 nM
Cc1cnc(-c2cccc(C(N)=O)c2)cc1-n1c(C)cc(OCc2ncc(F)cc2F)c(Cl)c1=O [Compound 4],> 20000 nM,50.5 nM,,,,,,,,,,6590 nM,> 4.66 h,2.93 h,> 4.66 h,96.7 nM
Cc1cnc(-c2cccc(C(=O)O)c2)c(F)c1-n1c(C)cc(OCc2ncc(F)cc2F)c(Cl)c1=O [Compound 29-P1],1150 nM,4.86 nM,1390 ng·h/mL,10.4 mL/min/kg,2.57 h,1450 ng/mL,1.83 L/kg,6490 ng·h/mL,80.6%,3.37 h,1380 ng/mL,,> 4.66 h,> 4.66 h,> 4.66 h,
